Measured values: patent EP4501917A1, “3,4-DIHYDROQUINOXALINE-2-CARBOXIMIDE DERIVATIVE COMPOUND AND PHARMACEUTICAL COMPOSITION COMPRISING SAME FOR PREVENTING OR TREATING CANCER DISEASE” (Daegu-Gyeongbuk Medical Innovation Foundation, priority 2022, dated 2023)

Key:
HDAC8 = biological target: T1, HDAC8 (Homo sapiens, UniProt Q9BY41); assay: HDAC8 inhibitory activity analysis (in vitro), RFU analysis, HDAC Fluorogenic assay kit; assay type: biochemical; details: for RFU (%): compound final concentration 10 µM, HDAC substrate 2A 20 µM, positive control (1% DMSO) set to 100, lower = more inhibition; for inhibitory activity against HDAC8: result in words, summary of Table 2, 10 µM
T1 construct: purchased BPS bioscience
T1 sequence (Q9BY41 1-377): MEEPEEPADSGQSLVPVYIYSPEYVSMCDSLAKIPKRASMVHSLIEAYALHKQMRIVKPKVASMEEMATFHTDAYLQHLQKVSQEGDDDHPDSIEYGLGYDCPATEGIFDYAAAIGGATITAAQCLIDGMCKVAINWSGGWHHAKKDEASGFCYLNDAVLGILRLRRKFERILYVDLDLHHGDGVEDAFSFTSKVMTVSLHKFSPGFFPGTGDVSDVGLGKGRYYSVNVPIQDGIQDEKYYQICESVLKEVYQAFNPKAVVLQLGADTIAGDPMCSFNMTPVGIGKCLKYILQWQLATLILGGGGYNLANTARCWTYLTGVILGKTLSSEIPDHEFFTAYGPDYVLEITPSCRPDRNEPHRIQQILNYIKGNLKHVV
Experimental: The compound of the Example was diluted to 1 mM (1% DMSO concentration) using DMSO to obtain a final concentration of 10 µM, and prepared by diluting 1/10 with assay buffer. In a 96-well black round-bottom plate, 5 µL of the diluted compound of the Example, 5 µL of the diluted HDAC substrate 2A, 5 µL of BSA (1 mg/mL), 5 µL of the HDAC8 enzyme diluted to an appropriate concentration, and 30 µL of assay buffer were added, and the enzyme reaction was performed at 37°C for 30 minutes. […] Afterwards, 50 µL of 2X HDAC developer was added to each well. After reacting for 15 minutes at room temperature, the fluorescence values at excitation wavelengths of 350-380 nm and emission wavelengths of 440-460 nm were measured using a microplate reader (Synergy Neo).

Liver cancer cells Huh-7 = assay: Liver cancer cell growth inhibition, CellTiter-Glo Luminescent Cell Viability Assay; assay type: cell-based; details: Huh-7 cells, various concentrations, day 1, FIG. 6; result in words
Experimental: In addition, an analysis of liver cancer growth inhibitory activity was performed. Liver cancer cells Huh-7 cells were dispensed in a 96-well plate at 1 × 10^4 cells/ml, and after 20 hours, PCI34051, Example 27, and Example 35 were added at various concentrations, and cultured for 24 and 48 hours at 37°C in a 5% CO2 atmosphere. After culturing, 100 µl CellTiter-Glo Luminescent Cell Viability Assay reagent was added and the luminescence signal was measured after 0.5-1 hour. The luminescence signal was measured using IVIS [PerkinElmer, (Waltham, USA)].

[1] = system: PC-3 prostate cancer cells; assay: Prostate cancer cell growth inhibition, CCK-8 assay; assay type: cell-based, human; details: PC-3 cells, FIG. 1, result in words
Experimental: PC-3, a human-derived prostate cancer cell line, was cultured with RPMI1640 (10% fetal bovine serum, 1% Penicillin Streptomycin) culture medium at 37°C, 5% CO2 condition. All cells in the experiment were subcultured when they reached a confluency of approximately 80% to 90%, and only cells that had not passed 20 passages were used.
After culturing, 10 µL CCK-8 reagent was added and the absorbance was measured after 1 hour. The absorbance was measured at 450 nm using a microplate reader [BMG Labtech (Offenburg, Germany)].

Compound	RFU (%) (HDAC8)	inhibitory activity against HDAC8 (HDAC8)	further results
Cc1cc2nc(C(=O)NCc3ccc4[nH]cnc4c3)c(=O)n(C[C@H](O)[C@H](O)[C@H](O)CO)c2cc1C [Example 34, N-((1H-benzo[d]imidazol-5-yl)methyl)-6,7-dimethyl-3-oxo-4-((2S,3S,4R)-2,3,4,5-tetrahydroxypentyl)-3,4-dihydroquinoxaline-2-carboxamide]	34.05%	inhibitory activity similar to TSA or SAHA	–
COc1ccc(Cn2ccc3ccc(C(=O)NO)cc32)cc1 [PCI-34051, N-hydroxy-1-(4-methoxybenzyl)-1H-indole-6-carboxamide, reference compound]	1.86%	–	cell viability (Liver cancer cells Huh-7): concentration-dependent inhibition of cancer cell viability
O=C(CCCCCCC(=O)Nc1ccccc1)NO [SAHA, suberoylanilide hydroxamic acid, reference compound]	38.57%	–	–
Cc1cc2nc(C(=O)NCc3nc4ccccc4[nH]3)c(=O)n(C[C@H](O)[C@H](O)[C@H](O)CO)c2cc1C [Example 24, N-((1H-benzo[d]imidazol-2-yl)methyl)-6,7-dimethyl-3-oxo-4-((2S,3S,4R)-2,3,4,5-tetrahydroxypentyl)-3,4-dihydroquinoxaline-2-carboxamide]	42.03%	–	–
Cc1cc2nc(C(=O)Nc3nnc(-c4ccc(Br)cc4)s3)c(=O)n(C[C@H](O)[C@H](O)[C@H](O)CO)c2cc1C [Example 11, N-(5-(4-bromophenyl)-1,3,4-thiadiazol-2-yl)-6,7-dimethyl-3-oxo-4-((2S,3S,4R)-2,3,4,5-tetrahydroxypentyl)-3,4-dihydroquinoxaline-2-carboxamide]	63.24%	–	–
Cc1cc2nc(C(=O)NCc3cc(Cl)cc(Cl)c3)c(=O)n(C[C@H](O)[C@H](O)[C@H](O)CO)c2cc1C [Example 7, N-(3,5-dichlorobenzyl)-6,7-dimethyl-3-oxo-4-((2S,3S,4R)-2,3,4,5-tetrahydroxypentyl)-3,4-dihydroquinoxaline-2-carboxamide]	54.79%	–	–
COC(=O)C1CCC(NC(=O)c2nc3cc(C)c(C)cc3n(C[C@H](O)[C@H](O)[C@H](O)CO)c2=O)C1 (stereo partly drawn) [Example 33, methyl 3-(6,7-dimethyl-3-oxo-4-((2S,3S,4R)-2,3,4,5-tetrahydroxypentyl)-3,4-dihydroquinoxaline-2-carboxamido)cyclopentane-1-carboxylate]	69.48%	–	–
Cc1cc2nc(C(=O)NCc3ccc(F)cc3)c(=O)n(C[C@H](O)[C@H](O)[C@H](O)CO)c2cc1C [Example 4, N-(4-fluorobenzyl)-6,7-dimethyl-3-oxo-4-((2S,3S,4R)-2,3,4,5-tetrahydroxypentyl)-3,4-dihydroquinoxaline-2-carboxamide]	85.71%	–	–

Now from value to compound, other results behind:

RFU (%) (HDAC8)	Compound	inhibitory activity against HDAC8 (HDAC8)	further results
16.61%	Cc1cc2nc(C(=O)Nc3cc(-c4ccc(Br)cc4)no3)c(=O)n(C[C@H](O)[C@H](O)[C@H](O)CO)c2cc1C [Example 10, N-(3-(4-bromophenyl)isoxazol-5-yl)-6,7-dimethyl-3-oxo-4-((2S,3S,4R)-2,3,4,5-tetrahydroxypentyl)-3,4-dihydroquinoxaline-2-carboxamide]	inhibitory activity similar to TSA or SAHA	–
85.37%	Cc1cc2nc(C(=O)NCc3ccc(Cl)c(Cl)c3)c(=O)n(C[C@H](O)[C@H](O)[C@H](O)CO)c2cc1C [Example 8, N-(3,4-dichlorobenzyl)-6,7-dimethyl-3-oxo-4-((2S,3S,4R)-2,3,4,5-tetrahydroxypentyl)-3,4-dihydroquinoxaline-2-carboxamide]	–	–
66.28%	Cc1cc2nc(C(=O)NCCc3ccc(Cl)cc3Cl)c(=O)n(C[C@H](O)[C@H](O)[C@H](O)CO)c2cc1C [Example 9, N-(2,4-dichlorophenethyl)-6,7-dimethyl-3-oxo-4-((2S,3S,4R)-2,3,4,5-tetrahydroxypentyl)-3,4-dihydroquinoxaline-2-carboxamide]	–	–
51.23%	Cc1cc2nc(C(=O)NCc3cccc(C(=O)NO)c3)c(=O)n(C[C@H](O)[C@H](O)[C@H](O)CO)c2cc1C [Example 50, N-(3-(hydroxycarbamoyl)benzyl)-6,7-dimethyl-3-oxo-4-((2S,3S,4R)-2,3,4,5-tetrahydroxypentyl)-3,4-dihydroquinoxaline-2-carboxamide]	–	–
5.81%	Cc1cc2nc(C(=O)Nc3cc(C(=O)NO)ccc3C)c(=O)n(C[C@H](O)[C@H](O)[C@H](O)CO)c2cc1C [Example 51, N-(5-(hydroxycarbamoyl)-2-methylphenyl)-6,7-dimethyl-3-oxo-4-((2S,3S,4R)-2,3,4,5-tetrahydroxypentyl)-3,4-dihydroquinoxaline-2-carboxamide]	inhibitory activity similar to TSA or SAHA	–
8.23%	Cc1cc2nc(C(=O)Nc3nc4c(F)cccc4[nH]3)c(=O)n(C[C@H](O)[C@H](O)[C@H](O)CO)c2cc1C [Example 35, N-(4-fluoro-1H-benzo[d]imidazol-2-yl)-6,7-dimethyl-3-oxo-4-((2S,3S,4R)-2,3,4,5-tetrahydroxypentyl)-3,4-dihydroquinoxaline-2-carboxamide]	inhibitory activity similar to TSA or SAHA	cell viability ([1]; after 24 hours): concentration-dependent inhibition of cancer cell viability; cell viability ([1]; after 48 hours): cell viability was restored; cell viability (Liver cancer cells Huh-7): concentration-dependent inhibition of cancer cell viability
53.58%	Cc1cc2nc(C(=O)NCc3ccc(C(=O)NO)cc3)c(=O)n(C[C@H](O)[C@H](O)[C@H](O)CO)c2cc1C [Example 47, N-(4-(hydroxycarbamoyl)benzyl)-6,7-dimethyl-3-oxo-4-((2S,3S,4R)-2,3,4,5-tetrahydroxypentyl)-3,4-dihydroquinoxaline-2-carboxamide]	–	–
10.48%	Cc1cc2nc(C(=O)Nc3ccc(C(=O)NO)cc3)c(=O)n(C[C@H](O)[C@H](O)[C@H](O)CO)c2cc1C [Example 48, N-(4-(hydroxycarbamoyl)phenyl)-6,7-dimethyl-3-oxo-4-((2S,3S,4R)-2,3,4,5-tetrahydroxypentyl)-3,4-dihydroquinoxaline-2-carboxamide]	inhibitory activity similar to TSA or SAHA	–
35.15%	Cc1cc2nc(C(=O)NCc3ccc(CC(=O)NO)cc3)c(=O)n(C[C@H](O)[C@H](O)[C@H](O)CO)c2cc1C [Example 49, N-(4-(2-(hydroxyamino)-2-oxoethyl)benzyl)-6,7-dimethyl-3-oxo-4-((2S,3S,4R)-2,3,4,5-tetrahydroxypentyl)-3,4-dihydroquinoxaline-2-carboxamide]	inhibitory activity similar to TSA or SAHA	–
58.97%	Cc1cc2nc(C(=O)Nc3cc(-c4ccc(Br)cc4)n[nH]3)c(=O)n(C[C@H](O)[C@H](O)[C@H](O)CO)c2cc1C [Example 12, N-(3-(4-bromophenyl)-1H-pyrazol-5-yl)-6,7-dimethyl-3-oxo-4-((2S,3S,4R)-2,3,4,5-tetrahydroxypentyl)-3,4-dihydroquinoxaline-2-carboxamide]	–	–
41.96%	Cc1cc2nc(C(=O)NC3CCC(C(=O)NO)C3)c(=O)n(C[C@H](O)[C@H](O)[C@H](O)CO)c2cc1C (stereo partly drawn) [Example 52, N-(3-(hydroxycarbamoyl)cyclopentyl)-6,7-dimethyl-3-oxo-4-((2S,3S,4R)-2,3,4,5-tetrahydroxypentyl)-3,4-dihydroquinoxaline-2-carboxamide]	–	–
